# Experimental data taken from US7625923B2, “Bicyclic modulators of androgen receptor function” (Bristol-Myers Squibb Company, priority 2004, dated 2009).
# What was measured:
# [1] = test system: wild type AR (MDA 453 cells); details: read-out: Kd for [3H]-DHT, Scatchard analysis, 4 h at 37° C.
# Description: For the whole-cell binding assay, human LNCaP cells (T877A mutant AR) or MDA 453 (wild type AR) in 96-well microtiter plates containing RPMI 1640 or DMEM supplemented with 10% charcoal stripped CA-FBS (Cocaleco Biologicals) respectively, were incubated at 37° C. to remove any endogenous ligand that might be complexed with the receptor in the cells.
# For the saturation analysis, the difference between the total binding and the non-specific binding, was defined as specific binding. […] See e.g. D. Rodbard, Mathematics and statistics of ligand assays: an illustrated guide: In: J. Langon and J. J. Clapp, eds., Ligand Assay, Masson Publishing U.S.A., Inc., New York, pp. 45-99, (1981), the disclosure of which is herein incorporated by reference.
# Two replicates were used for each sample.
# [formula] After correcting for non-specific binding, IC50 values were determined. […] C2C12 Mouse Myoblast Transactivation Assay
# [2] = target: glucocorticoid receptor (endogenous, A549 cells) (Homo sapiens, UniProt P04150); details: concentration ≦10 μM; 10 ng/mL PMA; 7 h at 37° C.
# Description: The AP-1 assay is a cell-based luciferase reporter assay. A549 cells, which contain endogenous glucocorticoid receptor, were stably transfected with an AP-1 DNA binding site attached to the luciferase gene. Cells are then grown in RPMI+10% fetal calf serum (charcoal-treated)+Penicillin/Streptomycin with 0.5 mg/mL geneticin. Cells are plated the day before the assay at approximately 40000 cells/well. On assay day, the media is removed by aspiration and 20 μL assay buffer (RPMI without phenol red+10% FCS (charcoal-treated)+Pen/Strep) is added to each well. At this point either 20 μL assay buffer (control experiments), the compounds of the present invention (“test compounds”) (dissolved in DMSO and added at varying concentrations) or dexamethasome (100 nM in DMSO, positive control) are added to each well. The plates are then pre-incubated for 15 min at 37° C., followed by stimulation of the cells with 10 ng/mL PMA. The plates are then incubated for 7 h at 37° C. after which 40 μL luciferase substrate reagent is added to each well. Activity is measured by analysis in a luminometer as compared to control experiments treated with buffer or dexamethasome.
# androgen receptor = target: T1, androgen receptor (Rattus norvegicus, UniProt P15207); details: castrated rats
# T1 sequence (P15207 1-902): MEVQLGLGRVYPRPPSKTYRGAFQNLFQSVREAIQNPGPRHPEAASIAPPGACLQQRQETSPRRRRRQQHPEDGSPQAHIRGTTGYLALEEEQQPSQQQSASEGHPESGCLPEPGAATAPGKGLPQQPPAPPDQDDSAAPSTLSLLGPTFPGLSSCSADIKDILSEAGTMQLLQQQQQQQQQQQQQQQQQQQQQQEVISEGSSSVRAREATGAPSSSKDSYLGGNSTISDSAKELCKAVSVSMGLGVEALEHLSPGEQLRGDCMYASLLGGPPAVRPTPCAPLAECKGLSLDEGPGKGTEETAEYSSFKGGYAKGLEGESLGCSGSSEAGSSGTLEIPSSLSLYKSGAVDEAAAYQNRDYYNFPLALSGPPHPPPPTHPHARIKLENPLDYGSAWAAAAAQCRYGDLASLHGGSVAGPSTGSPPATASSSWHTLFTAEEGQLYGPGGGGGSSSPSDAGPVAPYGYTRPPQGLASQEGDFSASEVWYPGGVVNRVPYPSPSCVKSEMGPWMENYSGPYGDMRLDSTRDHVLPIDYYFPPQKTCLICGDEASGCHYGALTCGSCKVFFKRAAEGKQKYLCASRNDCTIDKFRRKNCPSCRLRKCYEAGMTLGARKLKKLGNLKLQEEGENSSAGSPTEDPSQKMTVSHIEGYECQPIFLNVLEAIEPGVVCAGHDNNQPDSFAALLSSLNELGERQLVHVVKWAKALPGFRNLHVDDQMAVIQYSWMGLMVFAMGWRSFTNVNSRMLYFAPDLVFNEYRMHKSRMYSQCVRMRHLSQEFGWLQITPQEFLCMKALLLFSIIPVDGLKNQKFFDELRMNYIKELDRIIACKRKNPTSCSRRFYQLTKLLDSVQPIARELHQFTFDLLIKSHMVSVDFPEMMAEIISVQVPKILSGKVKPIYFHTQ
# Description: The basis of this assay lies in the well-defined action of androgenic agents on the maintenance and growth of muscle tissues and sexual accessory organs in animals and man. […] As described above, the effects of androgens on maintenance of male sexual accessory organs, such as the prostate and seminal vesicles, is well described. Castration results in rapid involution and atrophy of the prostate and seminal vesicles. This effect can be reversed by exogenous addition of androgens. Since both the levator ani muscle and the male sex organs are the tissues most responsive to the effects of androgenic agents, this model is used to determine the androgen dependent reversal of atrophy in the levator ani muscle and the sex accessory organs in immature castrated rats. Sexually mature rats (200-250 g, 6-8 weeks-old, Sprague-Dawley, Harlan) were acquired castrated from the vendor (Taconic). The rats were divided into groups and treated daily for 7 to 14 days with one of the following: • 1. Control vehicle • 2. […] TP plus Bicalutamide (administered p.o. in PEGTW, QD), a recognized antiandrogen, as a reference compound. • 4.
# At the end of the 7-14-day treatment, the animals were sacrificed by carbon dioxide, and the levator ani, seminal vesicle and ventral prostate weighed. […]
# glucocorticoid receptor (endogenous, A549 cells), sequence (P04150 whole entry): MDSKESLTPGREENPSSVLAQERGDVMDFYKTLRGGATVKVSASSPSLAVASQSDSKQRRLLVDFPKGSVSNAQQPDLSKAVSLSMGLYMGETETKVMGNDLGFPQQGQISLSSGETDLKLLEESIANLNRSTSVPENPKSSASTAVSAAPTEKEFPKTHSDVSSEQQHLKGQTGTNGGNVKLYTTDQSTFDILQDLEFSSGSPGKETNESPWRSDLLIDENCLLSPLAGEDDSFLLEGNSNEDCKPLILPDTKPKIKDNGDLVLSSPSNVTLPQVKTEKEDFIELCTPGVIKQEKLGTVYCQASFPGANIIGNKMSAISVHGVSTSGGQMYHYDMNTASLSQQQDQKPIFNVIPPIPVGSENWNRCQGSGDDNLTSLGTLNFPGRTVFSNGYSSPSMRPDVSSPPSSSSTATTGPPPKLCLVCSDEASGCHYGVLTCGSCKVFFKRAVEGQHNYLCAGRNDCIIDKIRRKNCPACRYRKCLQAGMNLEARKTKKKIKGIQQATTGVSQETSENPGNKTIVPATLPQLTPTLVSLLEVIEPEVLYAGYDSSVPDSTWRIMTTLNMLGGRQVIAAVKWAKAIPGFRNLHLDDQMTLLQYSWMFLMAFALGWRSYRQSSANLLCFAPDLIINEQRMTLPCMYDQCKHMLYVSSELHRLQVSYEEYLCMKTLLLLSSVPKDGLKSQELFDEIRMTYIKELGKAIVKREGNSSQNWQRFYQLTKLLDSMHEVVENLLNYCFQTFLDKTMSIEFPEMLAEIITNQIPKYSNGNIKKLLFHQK
molecule,measurement,setting,value
tritiated dihydrotestosterone [[^3H]-DHT],Kd,[1],0.7 nM
C[C@@H]1C[C@H]2[C@@H]3CCC4=CC(=O)C=C[C@]4(C)[C@@]3(F)[C@@H](O)C[C@]2(C)[C@@]1(O)C(=O)CO [dexamethasone],% inhibition of the AP-1 reporter system vs buffer control with PMA alone,[2],65%
"CCC(=O)O[C@H]1CC[C@H]2[C@@H]3CCC4=CC(=O)CC[C@]4(C)[C@H]3CC[C@]12C [testosterone propionate, Testosterone Propionate]",EC50 (increase in organ weight),androgen receptor,~0.03 mg
